This is an account of results in ChEMBL document CHEMBL3507680, “University of Dundee, Gates Library screen for HepG2 cell viability”.

Each structure is given as a SMILES string.

The nature of the data set: Human HepG2 cell viability assay in 384 well format. Format: toxicity, cell-based. To be noted: HepG2 cells, read-out: Inhibition. Details: dose 125 nL, time 70.5 hour; concentration not given beside the values.
As to `O=C(Nc1cnc(Oc2ccccc2F)nc1)C1CC1`, the cytotoxicity at 70.5 h is -3.71%.

For `Cc1ccc(C)c(S(=O)(=O)NCCNc2ccc(-n3cccc3)nn2)c1`, the cytotoxicity at 70.5 h was -7.55%.

With `CC(=O)N1CCN(c2cc(-n3cccc3)ncn2)CC1`, the cytotoxicity at 70.5 h was -7.94%.

For the compound `CS(=O)(=O)N1CCCC12CCCN(C(=O)c1ccc3c(c1)OCO3)C2` (stereo not given), the cytotoxicity at 70.5 h is -7.38%.

Consider `COCC(=O)N1CCC2(CC(=O)N(c3cccc(F)c3)C2)C1` (stereo not given), for which the cytotoxicity at 70.5 h was -9.01%.

On to `Cc1noc(C)c1CN1C[C@@H]2OCCN(Cc3cnn(C)c3)[C@@H]2C1`, for which the cytotoxicity at 70.5 h is -21.6%.

On to `CN1CCN(C(=O)c2n[nH]c3c2CCN(Cc2nccs2)C3)CC1`, for which the cytotoxicity at 70.5 h is -11.9%.

Turning to `COCC1c2nnn(CC3CC3)c2CCN1C(=O)N1CCCC1` (stereo not given), the cytotoxicity at 70.5 h turned out to be 14.1%.

In the case of `COCC1c2nnn(CC3CC3)c2CCN1C(=O)c1cccn1C` (stereo not given), the cytotoxicity at 70.5 h amounted to 9.68%.

As to `CC(C)NC(=O)N1CCCn2cnc(CN3CCCC3=O)c2C1`, the cytotoxicity at 70.5 h worked out at 27.9%.

Consider `Cc1noc(C2CCC3(CCN(C(=O)c4cnccn4)CC3)O2)n1` (stereo not given), for which the cytotoxicity at 70.5 h amounted to 3.99%.

As to `Cc1noc(C2CCC3(CCN(C(=O)C4CCOCC4)CC3)O2)n1` (stereo not given), the cytotoxicity at 70.5 h amounted to 2.64%.

Consider `CCS(=O)(=O)N1CCc2cc(C(=O)N(C)C)c(NCC3CC3)nc2CC1`, for which the cytotoxicity at 70.5 h is 0.785%.

As to `Cc1occc1C(=O)N1CCCn2cnc(CN3CCCC3=O)c2C1`, the cytotoxicity at 70.5 h is -0.779%.

As for `CN(C)C(=O)N1CCC2(CC1)COCCN(c1ncccn1)C2`, the cytotoxicity at 70.5 h was -3.19%.

Regarding `Cc1cc(C(=O)N2CCc3ncnc(-c4cnn(C)c4)c3CC2)no1`, the cytotoxicity at 70.5 h was 2.85%.

Regarding `Cc1ccccc1C(=O)N1CCCn2cnc(CN3CCCC3=O)c2C1`, the cytotoxicity at 70.5 h is -4.3%.

For `CC(C)NC(=O)N1CCC2(CC1)COc1ccccc1S(=O)(=O)N(C)C2`, the cytotoxicity at 70.5 h amounted to 0.573%.

With `CCOCC1CN(S(=O)(=O)C2CC2)Cc2ncn(CC3CC3)c21` (stereo not given), the cytotoxicity at 70.5 h was -4.92%.

Consider `Cc1ccc(C(=O)N2CCc3ncnc(-c4cnn(C)c4)c3CC2)o1`, for which the cytotoxicity at 70.5 h was -7.08%.

As to `COCC1CN(S(=O)(=O)C2CC2)Cc2ncn(CC3CC3)c21` (stereo not given), the cytotoxicity at 70.5 h is -1.47%.

Take `O=C1CCCN1Cc1ncn2c1CN(C(=O)Cc1ccccc1)CCC2`: the cytotoxicity at 70.5 h came to 0.61%.

With `Cc1noc(C2CCC3(CCN(C(=O)c4cnn(C)c4)CC3)O2)n1` (stereo not given), the cytotoxicity at 70.5 h was -10.3%.

For the compound `CN(C)CC(=O)N1CCC2(CC1)COc1ccccc1S(=O)(=O)N(C)C2`, the cytotoxicity at 70.5 h was found to be 0.316%.

On to `COCC(=O)N1CCC2(CC1)COc1ccccc1S(=O)(=O)N(C)C2`, for which the cytotoxicity at 70.5 h stood at 0.748%.

In the case of `COCC1CN(C(=O)CS(C)(=O)=O)Cc2ncn(CC3CC3)c21` (stereo not given), the cytotoxicity at 70.5 h was 1.88%.

Regarding `Cc1cccc(S(=O)(=O)N2CCCC3(CCCN3S(C)(=O)=O)C2)c1` (stereo not given), the cytotoxicity at 70.5 h amounted to 3.22%.

Consider `COCc1ncn2c1CN(C(=O)Nc1ccccc1)CC2`, for which the cytotoxicity at 70.5 h is -4.33%.

Regarding `COCC(=O)N1CCC2(COCc3cnc(NCc4ccco4)nc32)C1` (stereo not given), the cytotoxicity at 70.5 h was -2.26%.

With `Cc1nccc([C@H]2C[C@@H]3CCN(S(=O)(=O)C4CC4)C[C@H]3O2)n1`, the cytotoxicity at 70.5 h was found to be 0.462%.

In the case of `Cc1nccc([C@@H]2C[C@@H]3CCN(S(=O)(=O)C4CC4)C[C@H]3O2)n1`, the cytotoxicity at 70.5 h is -1.95%.

On to `CS(=O)(=O)N1CCCC12CCCN(S(=O)(=O)c1cccc(F)c1)C2` (stereo not given), for which the cytotoxicity at 70.5 h was 2.16%.

Consider `CNC(=O)[C@@]12CCC3(CCNCC3)[C@@H]1CN(S(C)(=O)=O)C2`, for which the cytotoxicity at 70.5 h amounted to 4.08%.

Take `COCC1CN(Cc2ccsc2)Cc2cnn(C)c21` (stereo not given): the cytotoxicity at 70.5 h is -2.85%.

Take `N#Cc1ccc(C(=O)N2C[C@H](OCc3cccnc3)[C@H]3COC[C@H]32)cc1`: the cytotoxicity at 70.5 h amounted to 3.47%.

For `O=C1CC2(CCN(c3nncs3)C2)CN1c1cccc(F)c1` (stereo not given), the cytotoxicity at 70.5 h is -3.52%.

As to `O=C(c1ccc[nH]1)N1C[C@H](OCc2ccccn2)[C@H]2COC[C@H]21`, the cytotoxicity at 70.5 h is -5.92%.

In the case of `O=c1ccc2c([nH]1)CCC(NCc1ccncc1)C2` (stereo not given), the cytotoxicity at 70.5 h is -2.51%.

On to `O=C1CC2(CCN(c3nncs3)C2)CN1c1cncnc1` (stereo not given), for which the cytotoxicity at 70.5 h was -0.39%.

For the compound `CCCC(=O)N1CCC2(CC1)CN(Cc1cccc(C)n1)C(=O)CO2`, the cytotoxicity at 70.5 h amounted to 0.856%.

Regarding `COc1ccc(Br)c(C(=O)NCC2CCN(C(=O)c3ccoc3)CC2)c1`, the cytotoxicity at 70.5 h was 0.959%.

With `CC(=O)NCCN1CCC(c2cccs2)CC1`, the cytotoxicity at 70.5 h was 0.738%.

Turning to `O=C(NCCN1CCC(c2cccs2)CC1)Nc1cccs1`, the cytotoxicity at 70.5 h is -3.14%.

`CSCC(C)(O)CNC(=O)c1cc(Br)ccc1Cl` (stereo not given): the cytotoxicity at 70.5 h was 16.5%.

`O=S(=O)(NCC1(O)CCOc2ccccc21)c1cccs1` (stereo not given): the cytotoxicity at 70.5 h stood at 3.15%.

Take `COC(=O)c1sccc1S(=O)(=O)NCC1(O)CCOc2ccccc21` (stereo not given): the cytotoxicity at 70.5 h was -4.94%.

Consider `O=S(=O)(NCC1(O)CCOc2ccccc21)c1ccc(Br)s1` (stereo not given), for which the cytotoxicity at 70.5 h was determined as 3.29%.

Regarding `O=C(c1cnn2c1OCCC2)N1CCN(C/C=C/c2ccccc2)CC1`, the cytotoxicity at 70.5 h was 7.17%.

As to `O=C(NCc1ccccn1)c1nnn(-c2ccc(Br)cc2)n1`, the cytotoxicity at 70.5 h was determined as 10.5%.

`Cn1c(C(F)(F)F)nn(CCNC(=O)c2cnc3ccccc3n2)c1=O`: the cytotoxicity at 70.5 h is -2.86%.

Take `COC(=O)c1sccc1S(=O)(=O)N1CCC(Oc2ncccc2Cl)CC1`: the cytotoxicity at 70.5 h amounted to 2.59%.

Regarding `N#Cc1ccc(OC2CCN(C(=O)c3ccc4c(c3)OCO4)CC2)nc1`, the cytotoxicity at 70.5 h came out at 17.3%.

For `CN(C)S(=O)(=O)N1CCC(Oc2cnccn2)CC1`, the cytotoxicity at 70.5 h is -0.386%.

Turning to `O=C(c1ccc2c(c1)OCO2)N1CCCSCC1CN1CCCC1` (stereo not given), the cytotoxicity at 70.5 h was 0.782%.

For `COCCN(Cc1ccoc1)C(=O)c1ccccc1Cl`, the cytotoxicity at 70.5 h was found to be 6.96%.

In the case of `Cc1cc(S(=O)(=O)N2CCC(S(C)(=O)=O)CC2)ccc1F`, the cytotoxicity at 70.5 h was -0.414%.

In the case of `COc1ccc(S(=O)(=O)N2CCC(S(C)(=O)=O)CC2)cc1C`, the cytotoxicity at 70.5 h was found to be 5.77%.

For `O=C(CC1CCCC1)NCCn1ccc(-c2ccccn2)n1`, the cytotoxicity at 70.5 h came out at 4.96%.

With `Cn1nc(CNC(=O)C2CCCC2)cc1C1CC1`, the cytotoxicity at 70.5 h came out at 38.9%.

For `O=S(=O)(Nc1cnn(C2CCOCC2)c1)c1ccc(F)c(F)c1`, the cytotoxicity at 70.5 h was found to be 1.31%.

On to `O=S(=O)(Nc1cnn(C2CCOCC2)c1)c1ccc2c(c1)CCO2`, for which the cytotoxicity at 70.5 h is -5.29%.

Consider `O=C(NCCC1=CCCCC1)C1CCCN(c2ccc3nncn3n2)C1` (stereo not given), for which the cytotoxicity at 70.5 h turned out to be 9.17%.

Turning to `O=C(CSC1CCc2ccccc2NC1=O)NCCc1ccco1` (stereo not given), the cytotoxicity at 70.5 h is 7.74%.

In the case of `CCOC(=O)N1CCN(C(=O)c2sc(-c3ccccc3F)nc2C)CC1`, the cytotoxicity at 70.5 h is -11.8%.

Consider `COc1ccccc1NC(=O)CSC1CCc2ccccc2NC1=O` (stereo not given), for which the cytotoxicity at 70.5 h is -10.1%.

Regarding `O=C(c1cocn1)N1CC[C@H]2OCC[C@@]2(COc2ncccc2F)C1`, the cytotoxicity at 70.5 h was -15.1%.

Consider `COCC1CN(S(=O)(=O)N(C)C)Cc2ncn(CC3CC3)c21` (stereo not given), for which the cytotoxicity at 70.5 h was determined as 2.72%.

As for `CCOCC(=O)N1CCOCC2(CCN(c3ncccn3)C2)C1` (stereo not given), the cytotoxicity at 70.5 h was found to be 2.44%.

Consider `O=C(NCC1CC1)[C@@H]1CC[C@@H]2[C@@H](CCN2Cc2ccc(F)c(F)c2)O1`, for which the cytotoxicity at 70.5 h was found to be 2.42%.

Regarding `COc1ccc(CN2CC[C@H]3O[C@@H](C(=O)NCC4CC4)CC[C@H]32)cc1`, the cytotoxicity at 70.5 h is -8.24%.

As to `Cc1ccc(CN2Cc3nnn(C)c3C(COCc3ccccc3)C2)s1` (stereo not given), the cytotoxicity at 70.5 h came out at 4.74%.

Take `COCc1ncn2c1CN(C(=O)c1ccc3ccccc3n1)CC2`: the cytotoxicity at 70.5 h is 6.36%.

For `CS(=O)(=O)NC1CC2(CCN(CCF)CC2)Oc2ccccc21` (stereo not given), the cytotoxicity at 70.5 h is -4.96%.

With `CN(C)C(=O)COC[C@]12COC[C@H]1CN(Cc1ccco1)C2`, the cytotoxicity at 70.5 h came to 0.692%.

Regarding `O=C(c1ccncc1F)N1CC[C@@H]2OC(COCC3CC3)CC[C@@H]21` (stereo not given in full), the cytotoxicity at 70.5 h is 5.27%.

Turning to `CC(C)CN1CCC2(CC1)CC(NS(C)(=O)=O)c1ccccc1O2` (stereo not given), the cytotoxicity at 70.5 h was found to be 3.23%.

For `CC(C)CN1CCC2(CC1)C(=O)Nc1ccc(C(=O)NC(C)C)cc12`, the cytotoxicity at 70.5 h was -0.986%.

In the case of `CC(C)NC(=O)c1ccc2c(c1)C1(CCN(C)CC1)C(=O)N2`, the cytotoxicity at 70.5 h was 2.1%.

Take `CC(C)NC(=O)N1C[C@H](OCc2cccnc2)[C@H]2COC[C@H]21`: the cytotoxicity at 70.5 h was found to be 0.936%.

Consider `O=C(CC1CCC2(CC1)CCN(Cc1ccncc1)CC2)N1CCCC1`, for which the cytotoxicity at 70.5 h was found to be 6.54%.

Regarding `O=c1ccc2c([nH]1)CCC(NCc1ccc(F)cc1)C2` (stereo not given), the cytotoxicity at 70.5 h is -5.16%.

In the case of `CNC(=O)CN1CC[C@H]2CN(C(=O)c3cccn3C)C[C@H]2C1`, the cytotoxicity at 70.5 h is -5.44%.

With `O=C1CC2(CCN(Cc3cccnc3)C2)CN1c1cccc(F)c1` (stereo not given), the cytotoxicity at 70.5 h is -16.5%.

Take `Cc1ccc2c(n1)N(CCn1cccn1)CCN(CC1CC1)C2`: the cytotoxicity at 70.5 h was -3.95%.

`Cc1ccc2c(n1)N(CCn1cccn1)CCN(C1CCOCC1)C2`: the cytotoxicity at 70.5 h was -5.52%.

As to `Cc1ccc(CN2Cc3nnn(C)c3C(COCc3ccccn3)C2)s1` (stereo not given), the cytotoxicity at 70.5 h was -0.991%.

For `COCCN1CCc2cc(C(=O)NC(C)C)c(NCC3CC3)nc2CC1`, the cytotoxicity at 70.5 h is -0.245%.

Regarding `CCn1nnc2c1C(COCCN(C)C)CN(Cc1ccc(C)s1)C2` (stereo not given), the cytotoxicity at 70.5 h amounted to 3.05%.

Turning to `CC(C)CCN1CCc2cc(C(=O)N(C)C)c(NCC3CC3)nc2CC1`, the cytotoxicity at 70.5 h amounted to 5.09%.

With `COCCO[C@H]1CCN(Cc2ccsc2)[C@H]1Cc1cccnc1`, the cytotoxicity at 70.5 h was determined as 24.4%.

For the compound `O=C(Cc1ccccn1)N1C[C@H](OCc2cccnc2)[C@H]2COC[C@H]21`, the cytotoxicity at 70.5 h stood at 0.247%.

On to `c1cncc(C2COC3(CCN(CC4CCOCC4)CC3)C2)c1` (stereo not given), for which the cytotoxicity at 70.5 h worked out at 1.21%.

Take `CCn1ncc2c1C(COC)CN(Cc1cccnc1)C2` (stereo not given): the cytotoxicity at 70.5 h came to 21.4%.

Turning to `CN(C)CCN1CCN(Cc2ccco2)Cc2cccnc21`, the cytotoxicity at 70.5 h is -4.07%.

`c1cncc(CN2CCC3(CC2)CC(c2cccnc2)CO3)c1` (stereo not given): the cytotoxicity at 70.5 h is -6.23%.
